How the values were obtained:
Assay type in all cases: functional
Streptococcus pyogenes [1] = experiment: Ratio of MIC for Streptococcus pyogenes clinical isolate to MIC for Streptococcus pyogenes clinical isolate in presence of 0.002% polysorbate 80
Staphylococcus aureus [2] = experiment: Antibacterial activity against Staphylococcus aureus clinical isolate by broth microdilution method
Streptococcus pneumoniae [3] = experiment: Antibacterial activity against Streptococcus pneumoniae ATCC 49619 in BHI broth by broth microdilution method in absence of 0.002% polysorbate 80
Streptococcus pneumoniae [4] = experiment: Antibacterial activity against Streptococcus pneumoniae clinical isolate by broth microdilution method
Staphylococcus aureus [5] = experiment: Ratio of MIC for Staphylococcus aureus clinical isolate to MIC for Staphylococcus aureus clinical isolate in presence of 0.002% polysorbate 80
Enterococcus faecalis [6] = experiment: Antibacterial activity against Enterococcus faecalis ATCC 29212 in CAMHB medium containing 2% LHB by broth microdilution method in presence of 0.002% polysorbate 80
Enterococcus faecium [7] = experiment: Ratio of MIC for Enterococcus faecium clinical isolate to MIC for Enterococcus faecium clinical isolate in presence of 0.002% polysorbate 80
Enterococcus faecalis [8] = experiment: Antibacterial activity against Enterococcus faecalis ATCC 29212 in CAMHB medium containing 2% LHB by broth microdilution method in absence of 0.002% polysorbate 80
Staphylococcus aureus [9] = experiment: Antibacterial activity against Staphylococcus aureus ATCC 29213 in CAMHB medium containing 2% LHB by broth microdilution method in presence of 0.002% polysorbate 80
Staphylococcus aureus [10] = experiment: Antibacterial activity against Staphylococcus aureus ATCC 29213 in CAMHB medium by broth microdilution method in absence of 0.002% polysorbate 80
Staphylococcus aureus [11] = experiment: Antibacterial activity against Staphylococcus aureus clinical isolate by broth microdilution method in presence of 0.002% polysorbate 80
Streptococcus pneumoniae [12] = experiment: Antibacterial activity against Streptococcus pneumoniae ATCC 49619 in BHI broth containing 2% LHB by broth microdilution method in presence of 0.002% polysorbate 80
Staphylococcus [13] = experiment: Ratio of MIC for coagulase-negative Staphylococcus clinical isolate to MIC for coagulase-negative Staphylococcus clinical isolate in presence of 0.002% polysorbate 80
Staphylococcus [14] = experiment: Antibacterial activity against coagulase-negative Staphylococcus clinical isolate by broth microdilution method in presence of 0.002% polysorbate 80
[15] = Antibacterial activity against Streptococcus Group G clinical isolate by broth microdilution method in presence of 0.002% polysorbate 80; conditions: Streptococcus sp. 'group G'
Enterococcus faecalis [16] = experiment: Antibacterial activity against Enterococcus faecalis clinical isolate by broth microdilution method in presence of 0.002% polysorbate 80
[17] = Antibacterial activity against Streptococcus Group C clinical isolate by broth microdilution method; conditions: Streptococcus sp. 'group C'
Staphylococcus aureus [18] = experiment: Antibacterial activity against Staphylococcus aureus ATCC 29213 in CAMHB medium by broth microdilution method in presence of 0.002% polysorbate 80
Staphylococcus aureus [19] = experiment: Antibacterial activity against Staphylococcus aureus ATCC 29213 in CAMHB medium containing 2% LHB by broth microdilution method in absence of 0.002% polysorbate 80
Enterococcus faecium [20] = experiment: Antibacterial activity against Enterococcus faecium clinical isolate by broth microdilution method
Enterococcus faecalis [21] = experiment: Antibacterial activity against Enterococcus faecalis clinical isolate by broth microdilution method
Streptococcus pneumoniae [22] = experiment: Antibacterial activity against Streptococcus pneumoniae clinical isolate by broth microdilution method in presence of 0.002% polysorbate 80
Streptococcus pneumoniae [23] = experiment: Ratio of MIC for Streptococcus pneumoniae clinical isolate to MIC for Streptococcus pneumoniae clinical isolate in presence of 0.002% polysorbate 80
Enterococcus faecalis [24] = experiment: Ratio of MIC for Enterococcus faecalis clinical isolate to MIC for Enterococcus faecalis clinical isolate in presence of 0.002% polysorbate 80
Streptococcus pneumoniae [25] = experiment: Antibacterial activity against Streptococcus pneumoniae ATCC 49619 in BHI broth by broth microdilution method in presence of 0.002% polysorbate 80
Streptococcus agalactiae [26] = experiment: Antibacterial activity against Streptococcus agalactiae clinical isolate using 2% LHB by broth microdilution method in presence of 0.002% polysorbate 80
Streptococcus pneumoniae [27] = experiment: Antibacterial activity against Streptococcus pneumoniae ATCC 49619 in BHI broth containing 2% LHB by broth microdilution method in absence of 0.002% polysorbate 80
Streptococcus viridans [28] = experiment: Antibacterial activity against Streptococcus viridans group clinical isolate by broth microdilution method in presence of 0.002% polysorbate 80
Streptococcus pyogenes [29] = experiment: Antibacterial activity against Streptococcus pyogenes clinical isolate by broth microdilution method in presence of 0.002% polysorbate 80
Staphylococcus [30] = experiment: Antibacterial activity against coagulase-negative Staphylococcus clinical isolate by broth microdilution method
Streptococcus pneumoniae [31] = experiment: Antibacterial activity against Streptococcus pneumoniae ATCC 49619 in CAMHB medium containing 2% LHB by broth microdilution method in absence of 0.002% polysorbate 80
Streptococcus agalactiae [32] = experiment: Antibacterial activity against Streptococcus agalactiae clinical isolate using 2% LHB by broth microdilution method
Streptococcus viridans [33] = experiment: Antibacterial activity against Streptococcus viridans group clinical isolate by broth microdilution method
Streptococcus pyogenes [34] = experiment: Antibacterial activity against Streptococcus pyogenes clinical isolate by broth microdilution method
Streptococcus viridans [35] = experiment: Ratio of MIC for Streptococcus viridans group clinical isolate to MIC for Streptococcus viridans group clinical isolate in presence of 0.002% polysorbate 80
[36] = Antibacterial activity against Streptococcus Group G clinical isolate by broth microdilution method; conditions: Streptococcus sp. 'group G'
[37] = Antibacterial activity against Streptococcus Group C clinical isolate by broth microdilution method in presence of 0.002% polysorbate 80; conditions: Streptococcus sp. 'group C'
Streptococcus agalactiae [38] = experiment: Ratio of MIC for Streptococcus agalactiae clinical isolate to MIC for Streptococcus agalactiae clinical isolate in presence of 0.002% polysorbate 80
Enterococcus faecium [39] = experiment: Antibacterial activity against Enterococcus faecium clinical isolate by broth microdilution method in presence of 0.002% polysorbate 80
Streptococcus pneumoniae [40] = experiment: Antibacterial activity against Streptococcus pneumoniae ATCC 49619 in CAMHB medium containing 2% LHB by broth microdilution method in presence of 0.002% polysorbate 80
Enterococcus faecalis [41] = experiment: Antibacterial activity against Enterococcus faecalis ATCC 29212 in CAMHB medium by broth microdilution method in presence of 0.002% polysorbate 80
Enterococcus faecalis [42] = experiment: Antibacterial activity against Enterococcus faecalis ATCC 29212 in CAMHB medium by broth microdilution method in absence of 0.002% polysorbate 80
Staphylococcus aureus [43] = experiment: Antibacterial activity against Staphylococcus aureus ATCC 29213 assessed as reduction in compound MIC by broth microdilution method in presence of 0.002% polysorbate 80 in inoculum
Staphylococcus aureus [44] = experiment: Antibacterial activity against Staphylococcus aureus ATCC 29213 assessed as reduction in compound MIC by broth microdilution method in presence of 0.002% polysorbate 80 in solvent

CC(=O)N[C@@H]1[C@H](Oc2c3cc4cc2Oc2ccc(cc2Cl)[C@@H](O[C@@H]2O[C@@H](CO)[C@@H](O)[C@H](O)[C@@H]2NC(C)=O)[C@@H]2NC(=O)[C@H](NC(=O)[C@@H]4NC(=O)[C@H]4NC(=O)[C@@H](Cc5ccc(c(Cl)c5)O3)NC(=O)[C@H](N)c3ccc(O)c(c3)Oc3cc(O)cc4c3)c3ccc(O)c(c3)-c3c(O[C@H]4O[C@H](CO)[C@@H](O)[C@@H](O)[C@@H]4O)cc(O)cc3[C@@H](C(=O)O)NC2=O)O[C@@H](CO)[C@@H](O)[C@@H]1O
0.06 µg/mL: MIC (Streptococcus pneumoniae [4]) | MIC90 (Streptococcus pneumoniae [4]) | MIC (Streptococcus pneumoniae [22]) | MIC90 (Streptococcus pneumoniae [22]) | MIC90 (Streptococcus agalactiae [26]) | MIC90 (Streptococcus agalactiae [32]) | MIC90 (Streptococcus pyogenes [34])
1: Ratio (Staphylococcus aureus [5]) | Ratio (Staphylococcus [13]) | Ratio (Streptococcus pneumoniae [23]) | Ratio (Streptococcus agalactiae [38])
0.03 µg/mL: MIC (Streptococcus pneumoniae [3]) | MIC (Streptococcus pneumoniae [12]) | MIC [15] | MIC [17] | MIC (Streptococcus pneumoniae [25]) | MIC (Streptococcus pneumoniae [27]) | MIC90 (Streptococcus pyogenes [29]) | MIC (Streptococcus pneumoniae [31]) | MIC [36] | MIC [37] | MIC (Streptococcus pneumoniae [40])
0.5 µg/mL: MIC90 (Staphylococcus aureus [2]) | MIC (Enterococcus faecalis [6]) | MIC (Staphylococcus aureus [9]) | MIC (Staphylococcus aureus [10]) | MIC90 (Staphylococcus aureus [11]) | MIC (Staphylococcus aureus [18]) | MIC90 (Enterococcus faecalis [21]) | MIC (Enterococcus faecalis [41]) | MIC (Enterococcus faecalis [42])
128 µg/mL: MIC90 (Enterococcus faecium [39])
2: Ratio (Streptococcus pyogenes [1])
0.12 µg/mL: MIC90 (Enterococcus faecalis [16]) | MIC90 (Streptococcus viridans [28]) | MIC90 (Streptococcus viridans [33])
0.5: Ratio (Enterococcus faecium [7]) | Ratio (Streptococcus viridans [35])
4: Ratio (Enterococcus faecalis [24])
1 µg/mL: MIC (Enterococcus faecalis [8]) | MIC (Staphylococcus aureus [19])
64 µg/mL: MIC90 (Enterococcus faecium [20])
2 µg/mL: MIC90 (Staphylococcus [14]) | MIC90 (Staphylococcus [30])

O=C(O)c1cn(C2CC2)c2cc(N3CCNCC3)c(F)cc2c1=O [CIPROFLOXACIN]
1 µg/mL: MIC (Streptococcus pneumoniae [12]) | MIC (Streptococcus pneumoniae [40])
0.5 µg/mL: MIC (Enterococcus faecalis [6]) | MIC (Enterococcus faecalis [8]) | MIC (Staphylococcus aureus [9]) | MIC (Staphylococcus aureus [10]) | MIC (Staphylococcus aureus [18]) | MIC (Staphylococcus aureus [19]) | MIC (Enterococcus faecalis [41]) | MIC (Enterococcus faecalis [42])

CN[C@H](CC(C)C)C(=O)N[C@H]1C(=O)N[C@@H](CC(N)=O)C(=O)N[C@H]2C(=O)N[C@H]3C(=O)N[C@H](C(=O)N[C@H](C(=O)O)c4cc(O)cc(O)c4-c4cc3ccc4O)[C@H](O[C@H]3C[C@](C)(N)[C@@H](O)[C@H](C)O3)c3ccc(c(Cl)c3)Oc3cc2cc(c3O[C@@H]2O[C@H](CO)[C@@H](O)[C@H](O)[C@H]2O[C@H]2C[C@](C)(NCc3ccc(-c4ccc(Cl)cc4)cc3)[C@@H](O)[C@H](C)O2)Oc2ccc(cc2Cl)[C@H]1O [ORITAVANCIN]
0.03 µg/mL: MIC (Enterococcus faecalis [6]) | MIC (Staphylococcus aureus [9]) | MIC (Staphylococcus aureus [18]) | MIC (Staphylococcus aureus [19]) | MIC (Enterococcus faecalis [41])
1 µg/mL: MIC (Staphylococcus aureus [10]) | MIC90 (Streptococcus viridans [28]) | MIC90 (Streptococcus agalactiae [32]) | MIC90 (Streptococcus viridans [33])
0.5 µg/mL: MIC (Enterococcus faecalis [42])
32: Ratio (Staphylococcus aureus [5])
1: Ratio (Streptococcus pyogenes [1]) | Ratio (Streptococcus pneumoniae [23]) | Ratio (Streptococcus viridans [35])
0.25 µg/mL: MIC90 (Staphylococcus [14]) | MIC90 (Streptococcus agalactiae [26]) | MIC90 (Streptococcus pyogenes [29]) | MIC90 (Streptococcus pyogenes [34]) | MIC90 (Enterococcus faecium [39])
4: fold change (FC) (Staphylococcus aureus [43])
0.002 µg/mL: MIC (Streptococcus pneumoniae [40])
0.004 µg/mL: MIC90 (Streptococcus pneumoniae [4]) | MIC [15] | MIC [17] | MIC90 (Streptococcus pneumoniae [22]) | MIC [36] | MIC [37]
4 µg/mL: MIC90 (Staphylococcus aureus [2]) | MIC90 (Enterococcus faecium [20]) | MIC90 (Staphylococcus [30])
0.12 µg/mL: MIC90 (Staphylococcus aureus [11]) | MIC90 (Enterococcus faecalis [16])
16: Ratio (Enterococcus faecium [7]) | Ratio (Staphylococcus [13]) | fold change (FC) (Staphylococcus aureus [44]) | Ratio (Enterococcus faecalis [24])
0.008 µg/mL: MIC (Streptococcus pneumoniae [3])
0.016 µg/mL: MIC (Enterococcus faecalis [8])
0.001 µg/mL: MIC (Streptococcus pneumoniae [12]) | MIC (Streptococcus pneumoniae [25]) | MIC (Streptococcus pneumoniae [27]) | MIC (Streptococcus pneumoniae [31])
2 µg/mL: MIC90 (Enterococcus faecalis [21])

CN[C@H](CC(C)C)C(=O)N[C@H]1C(=O)N[C@@H](CC(N)=O)C(=O)N[C@H]2C(=O)N[C@H]3C(=O)N[C@H](C(=O)N[C@H](C(=O)O)c4cc(O)cc(O)c4-c4cc3ccc4O)[C@H](O)c3ccc(c(Cl)c3)Oc3cc2cc(c3O[C@@H]2O[C@H](CO)[C@@H](O)[C@H](O)[C@H]2O[C@H]2C[C@](C)(N)[C@H](O)[C@H](C)O2)Oc2ccc(cc2Cl)[C@H]1O [VANCOMYCIN]
2 µg/mL: MIC (Enterococcus faecalis [8]) | MIC90 (Staphylococcus [14]) | MIC90 (Enterococcus faecalis [16]) | MIC90 (Enterococcus faecalis [21])
0.5 µg/mL: MIC90 (Streptococcus agalactiae [26]) | MIC90 (Streptococcus viridans [28]) | MIC90 (Streptococcus agalactiae [32]) | MIC90 (Streptococcus viridans [33])
1 µg/mL: MIC90 (Staphylococcus aureus [2]) | MIC90 (Staphylococcus aureus [11]) | MIC90 (Staphylococcus [30])
> 256 µg/mL: MIC90 (Enterococcus faecium [20]) | MIC90 (Enterococcus faecium [39])
0.25 µg/mL: MIC (Streptococcus pneumoniae [3]) | MIC90 (Streptococcus pneumoniae [4]) | MIC (Streptococcus pneumoniae [12]) | MIC [15] | MIC90 (Streptococcus pneumoniae [22]) | MIC (Streptococcus pneumoniae [25]) | MIC (Streptococcus pneumoniae [27]) | MIC (Streptococcus pyogenes [29]) | MIC90 (Streptococcus pyogenes [29]) | MIC (Streptococcus pneumoniae [31]) | MIC (Streptococcus pyogenes [34]) | MIC90 (Streptococcus pyogenes [34]) | MIC [36] | MIC (Streptococcus pneumoniae [40])
0.12 µg/mL: MIC [17] | MIC [37]

Source: ChEMBL document CHEMBL1255329, “Effect of polysorbate 80 on oritavancin binding to plastic surfaces: implications for susceptibility testing” (2008)
